Assay: wn = mass fraction of the nth substance listed
Conditions: for surface tension liquid-gas: Maximal bubble pressure; for mass density: 100 kPa, Liquid, Vibrating tube method

CCn1cc[n+](CCOC)c1.N#C[S-] [1-ethyl-3-(2-methoxyethyl)imidazolium thiocyanate] + O
Conditions | mass density, w2 = 0.00246 [kg/m3] | mass density, w2 = 0.00426 [kg/m3] | mass density, w2 = 0.00608 [kg/m3] | mass density, w2 = 0.00832 [kg/m3] | mass density, w2 = 0.00975 [kg/m3] | surface tension liquid-gas, w2 = 0.00382 [mN/m] | surface tension liquid-gas, w2 = 0.00528 [mN/m] | surface tension liquid-gas, w2 = 0.00668 [mN/m] | surface tension liquid-gas, w2 = 0.00811 [mN/m] | surface tension liquid-gas, w2 = 0.00956 [mN/m]
298.15 K | 1121.78 | 1121.54 | 1121.29 | 1120.96 | 1120.82 | 49.3 | 49.4 | 49.5 | 49.6 | 49.7
303.15 K | 1118.56 | 1118.32 | 1118.08 | 1117.75 | 1117.6 | 49 | 49.1 | 49.2 | 49.3 | 49.4
308.15 K | 1115.36 | 1115.12 | 1114.88 | 1114.54 | 1114.4 | 48.7 | 48.8 | 48.9 | 49 | 49.1
313.15 K | 1112.18 | 1111.94 | 1111.7 | 1111.35 | 1111.21 | 48.4 | 48.5 | 48.6 | 48.8 | 48.9
318.15 K | 1109.03 | 1108.77 | 1108.54 | 1108.18 | 1108.03 | 48.1 | 48.2 | 48.3 | 48.5 | 48.6
323.15 K | 1105.88 | 1105.63 | 1105.39 | 1105.02 | 1104.87 | 47.8 | 47.9 | 48 | 48.1 | 48.2
328.15 K | 1102.76 | 1102.5 | 1102.25 | 1101.87 | 1101.72 | 47.6 | 47.7 | 47.8 | 47.9 | 48
333.15 K | 1099.65 | 1099.38 | 1099.13 | 1098.74 | 1098.59 | 47.4 | 47.5 | 47.6 | 47.7 | 47.8
338.15 K | 1096.55 | 1096.28 | 1096.02 | 1095.62 | 1095.47 | 47.1 | 47.2 | 47.3 | 47.5 | 47.6

CCn1cc[n+](CCOC)c1.O=S(=O)([O-])C(F)(F)F + O
Conditions | mass density, w2 = 0.00185 [kg/m3] | mass density, w2 = 0.0038 [kg/m3] | mass density, w2 = 0.00537 [kg/m3] | mass density, w2 = 0.00665 [kg/m3] | mass density, w2 = 0.00891 [kg/m3] | surface tension liquid-gas, w2 = 0.0016 [mN/m] | surface tension liquid-gas, w2 = 0.00284 [mN/m] | surface tension liquid-gas, w2 = 0.00419 [mN/m] | surface tension liquid-gas, w2 = 0.0056 [mN/m] | surface tension liquid-gas, w2 = 0.007 [mN/m]
298.15 K | 1355.32 | 1354.72 | 1354.29 | 1353.79 | 1353.19 | 38.2 | 38.4 | 38.6 | 38.8 | 39
303.15 K | 1351.04 | 1350.44 | 1350 | 1349.52 | 1348.89 | 37.9 | 38.1 | 38.3 | 38.4 | 38.6
308.15 K | 1346.78 | 1346.18 | 1345.72 | 1345.26 | 1344.62 | 37.6 | 37.8 | 37.9 | 38.1 | 38.3
313.15 K | 1342.54 | 1341.93 | 1341.46 | 1341.03 | 1340.36 | 37.3 | 37.5 | 37.7 | 37.9 | 38.1
318.15 K | 1338.31 | 1337.7 | 1337.22 | 1336.82 | 1336.12 | 37.1 | 37.3 | 37.5 | 37.7 | 37.9
323.15 K | 1334.1 | 1333.49 | 1333 | 1332.62 | 1331.9 | 36.8 | 37 | 37.2 | 37.5 | 37.7
328.15 K | 1329.9 | 1329.3 | 1328.79 | 1328.44 | 1327.7 | 36.5 | 36.7 | 36.9 | 37.1 | 37.3
333.15 K | 1325.72 | 1325.11 | 1324.6 | 1324.26 | 1323.51 | 36.3 | 36.5 | 36.7 | 36.9 | 37.1
338.15 K | 1321.54 | 1320.94 | 1320.43 | 1320.1 | 1319.34 | 36 | 36.2 | 36.3 | 36.5 | 36.7

CC(=O)[O-].CCn1cc[n+](CCOC)c1 [1-ethyl-3-(2-methoxyethyl)imidazolium acetate] + O
Conditions | mass density, w2 = 0.00822 [kg/m3] | mass density, w2 = 0.00966 [kg/m3] | mass density, w2 = 0.01112 [kg/m3] | mass density, w2 = 0.01254 [kg/m3] | mass density, w2 = 0.01399 [kg/m3] | surface tension liquid-gas, w2 = 0.00188 [mN/m] | surface tension liquid-gas, w2 = 0.0034 [mN/m] | surface tension liquid-gas, w2 = 0.00488 [mN/m] | surface tension liquid-gas, w2 = 0.00638 [mN/m] | surface tension liquid-gas, w2 = 0.00792 [mN/m]
298.15 K | 1193.01 | 1193.1 | 1193.21 | 1193.32 | 1193.44 | 46.3 | 46.5 | 46.7 | 47 | 47.3
303.15 K | 1189.68 | 1189.78 | 1189.89 | 1189.98 | 1190.11 | 46 | 46.2 | 46.4 | 46.7 | 47
308.15 K | 1186.36 | 1186.45 | 1186.56 | 1186.66 | 1186.79 | 45.7 | 45.9 | 46.2 | 46.4 | 46.7
313.15 K | 1183.05 | 1183.14 | 1183.25 | 1183.35 | 1183.48 | 45.4 | 45.7 | 45.9 | 46.1 | 46.4
318.15 K | 1179.76 | 1179.85 | 1179.96 | 1180.06 | 1180.19 | 45.1 | 45.3 | 45.6 | 45.8 | 46.1
323.15 K | 1176.48 | 1176.57 | 1176.68 | 1176.78 | 1176.91 | 44.8 | 45.1 | 45.3 | 45.5 | 45.8
328.15 K | 1173.21 | 1173.31 | 1173.42 | 1173.52 | 1173.65 | 44.6 | 44.9 | 45.1 | 45.3 | 45.6
333.15 K | 1169.97 | 1170.06 | 1170.17 | 1170.27 | 1170.4 | 44.4 | 44.7 | 44.8 | 45.1 | 45.3
338.15 K | 1166.74 | 1166.82 | 1166.93 | 1167.03 | 1167.16 | 44.2 | 44.5 | 44.6 | 44.9 | 45.1

CCn1cc[n+](CCOC)c1.N#C[N-]C#N [1-ethyl-3-(2-methoxyethyl)imidazolium dicyanamide] + O
Conditions | mass density, w2 = 0.00148 [kg/m3] | mass density, w2 = 0.00277 [kg/m3] | mass density, w2 = 0.00434 [kg/m3] | mass density, w2 = 0.0055 [kg/m3] | mass density, w2 = 0.00719 [kg/m3] | surface tension liquid-gas, w2 = 0.00031 [mN/m] | surface tension liquid-gas, w2 = 0.00175 [mN/m] | surface tension liquid-gas, w2 = 0.00317 [mN/m] | surface tension liquid-gas, w2 = 0.00461 [mN/m] | surface tension liquid-gas, w2 = 0.00609 [mN/m]
298.15 K | 1113.35 | 1113.18 | 1112.96 | 1112.77 | 1112.46 | 44.7 | 44.9 | 45.3 | 45.6 | 45.9
303.15 K | 1109.96 | 1109.78 | 1109.57 | 1109.37 | 1109.06 | 44.4 | 44.7 | 45 | 45.3 | 45.6
308.15 K | 1106.58 | 1106.41 | 1106.19 | 1106 | 1105.69 | 44.1 | 44.4 | 44.7 | 45 | 45.3
313.15 K | 1103.23 | 1103.05 | 1102.83 | 1102.64 | 1102.33 | 43.8 | 44.1 | 44.4 | 44.7 | 45
318.15 K | 1099.89 | 1099.72 | 1099.5 | 1099.3 | 1098.99 | 43.5 | 43.8 | 44.1 | 44.4 | 44.7
323.15 K | 1096.58 | 1096.4 | 1096.18 | 1095.98 | 1095.66 | 43.2 | 43.5 | 43.8 | 44.2 | 44.4
328.15 K | 1093.27 | 1093.1 | 1092.88 | 1092.68 | 1092.36 | 43 | 43.3 | 43.6 | 44 | 44.2
333.15 K | 1090 | 1089.82 | 1089.59 | 1089.4 | 1089.08 | 42.7 | 43.1 | 43.4 | 43.7 | 44
338.15 K | 1086.74 | 1086.56 | 1086.33 | 1086.13 | 1085.81 | 42.4 | 42.8 | 43.1 | 43.4 | 43.7

— the NIST ThermoML archive (doi:10.1016/j.jct.2017.08.035)
